Assay results from the supplement of paper PMC10307832.

Legend:
Experiment in all cases: relative viability (nuclei count vs DMSO), 5 days (fraction); higher = more cells survive
NCI-H661 = system: NCI-H661
Outline: (§1)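 Each reported value is a median over duplicate plates. It expresses relative viability: treated-well nuclei count divided by vehicle-well nuclei count. Lung cancer cell lines in 1536-well plates were dosed by pin tool a day after seeding, alone with one drug or with a fixed anchor-drug dose plus five library-drug doses (not always all listed) in √10 steps, and nuclei were counted after 5 days.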

NCI-H647 = system: NCI-H647
Outline: as §1

LOU-NH91 = system: LOU-NH91
Outline: as §1

NCI-H2126 = system: NCI-H2126
Outline: as §1

NCI-H2085 = system: NCI-H2085
Outline: as §1

NCI-H1975 = system: NCI-H1975
Outline: as §1

HARA = system: HARA
Outline: as §1

NCI-H1651 = system: NCI-H1651
Outline: as §1

BEN = system: BEN
Outline: as §1

CAL-12T = system: CAL-12T
Outline: as §1

NCI-H1666 = system: NCI-H1666
Outline: as §1

RERF-LC-KJ = system: RERF-LC-KJ
Outline: as §1

LCLC-103H = system: LCLC-103H
Outline: as §1

NCI-H1944 = system: NCI-H1944
Outline: as §1

NCI-H520 = system: NCI-H520
Outline: as §1

NCI-H596 = system: NCI-H596
Outline: as §1

NCI-H1734 = system: NCI-H1734
Outline: as §1

NCI-H460 = system: NCI-H460
Outline: as §1

SW 900 = system: SW 900
Outline: as §1

A-427 = system: A-427
Outline: as §1

NCI-H838 = system: NCI-H838
Outline: as §1

NCI-H727 = system: NCI-H727
Outline: as §1

## Cc1cn(-c2cc(NC(=O)c3ccc(C)c(Nc4nccc(-c5cccnc5)n4)c3)cc(C(F)(F)F)c2)cn1 [Nilotinib] + CC(=O)Nc1cccc(-n2c(=O)n(C3CC3)c(=O)c3c(Nc4ccc(I)cc4F)n(C)c(=O)c(C)c32)c1 [Trametinib] (partner 0.02 µM)
NCI-H661; first compound 0.001 µM
  relative viability: 0.49
NCI-H661; first compound 0.003162 µM
  relative viability: 0.593
NCI-H661; first compound 0.01 µM
  relative viability: 0.606
NCI-H661; first compound 0.03162 µM
  relative viability: 0.407
NCI-H661; first compound 0.1 µM
  relative viability: 0.367
NCI-H647; first compound 0.001 µM
  relative viability: 0.363
NCI-H647; first compound 0.003162 µM
  relative viability: 0.614
NCI-H647; first compound 0.01 µM
  relative viability: 0.352
NCI-H647; first compound 0.03162 µM
  relative viability: 0.18
NCI-H647; first compound 0.1 µM
  relative viability: 0.254
LOU-NH91; first compound 0.001 µM
  relative viability: 0.799
LOU-NH91; first compound 0.003162 µM
  relative viability: 0.818
LOU-NH91; first compound 0.01 µM
  relative viability: 0.846
LOU-NH91; first compound 0.03162 µM
  relative viability: 0.77
LOU-NH91; first compound 0.1 µM
  relative viability: 0.765
NCI-H2126; first compound 0.001 µM
  relative viability: 0.521
NCI-H2126; first compound 0.003162 µM
  relative viability: 0.647
NCI-H2126; first compound 0.01 µM
  relative viability: 0.647
NCI-H2126; first compound 0.03162 µM
  relative viability: 0.551
NCI-H2126; first compound 0.1 µM
  relative viability: 0.554
NCI-H2085; first compound 0.001 µM
  relative viability: 0.483
NCI-H2085; first compound 0.003162 µM
  relative viability: 0.584
NCI-H2085; first compound 0.01 µM
  relative viability: 0.469
NCI-H2085; first compound 0.03162 µM
  relative viability: 0.456
NCI-H2085; first compound 0.1 µM
  relative viability: 0.54
NCI-H1975; first compound 0.001 µM
  relative viability: 0.338
NCI-H1975; first compound 0.003162 µM
  relative viability: 0.338
NCI-H1975; first compound 0.01 µM
  relative viability: 0.308
NCI-H1975; first compound 0.03162 µM
  relative viability: 0.241
NCI-H1975; first compound 0.1 µM
  relative viability: 0.234
HARA; first compound 0.001 µM
  relative viability: 0.43
HARA; first compound 0.003162 µM
  relative viability: 0.468
HARA; first compound 0.01 µM
  relative viability: 0.522
HARA; first compound 0.03162 µM
  relative viability: 0.402
HARA; first compound 0.1 µM
  relative viability: 0.289
NCI-H1651; first compound 0.001 µM
  relative viability: 0.828
NCI-H1651; first compound 0.003162 µM
  relative viability: 0.916
NCI-H1651; first compound 0.01 µM
  relative viability: 0.951
NCI-H1651; first compound 0.03162 µM
  relative viability: 0.761
NCI-H1651; first compound 0.1 µM
  relative viability: 0.851
BEN; first compound 0.001 µM
  relative viability: 0.98
BEN; first compound 0.003162 µM
  relative viability: 0.931
BEN; first compound 0.01 µM
  relative viability: 1.01
BEN; first compound 0.03162 µM
  relative viability: 0.954
BEN; first compound 0.1 µM
  relative viability: 1.15
CAL-12T; first compound 0.001 µM
  relative viability: 0.289
CAL-12T; first compound 0.003162 µM
  relative viability: 0.34
CAL-12T; first compound 0.01 µM
  relative viability: 0.261
CAL-12T; first compound 0.03162 µM
  relative viability: 0.283
CAL-12T; first compound 0.1 µM
  relative viability: 0.249
NCI-H1666; first compound 0.001 µM
  relative viability: 0.843
NCI-H1666; first compound 0.003162 µM
  relative viability: 0.689
NCI-H1666; first compound 0.01 µM
  relative viability: 0.638
NCI-H1666; first compound 0.03162 µM
  relative viability: 0.766
NCI-H1666; first compound 0.1 µM
  relative viability: 0.746
RERF-LC-KJ; first compound 0.001 µM
  relative viability: 0.79
RERF-LC-KJ; first compound 0.003162 µM
  relative viability: 0.985
RERF-LC-KJ; first compound 0.01 µM
  relative viability: 0.985
RERF-LC-KJ; first compound 0.03162 µM
  relative viability: 0.764
RERF-LC-KJ; first compound 0.1 µM
  relative viability: 0.811
LCLC-103H; first compound 0.001 µM
  relative viability: 0.588
LCLC-103H; first compound 0.003162 µM
  relative viability: 0.773
LCLC-103H; first compound 0.01 µM
  relative viability: 0.75
LCLC-103H; first compound 0.03162 µM
  relative viability: 0.579
LCLC-103H; first compound 0.1 µM
  relative viability: 0.728
NCI-H1944; first compound 0.001 µM
  relative viability: 0.378
NCI-H1944; first compound 0.003162 µM
  relative viability: 0.415
NCI-H1944; first compound 0.01 µM
  relative viability: 0.39
NCI-H1944; first compound 0.03162 µM
  relative viability: 0.383
NCI-H1944; first compound 0.1 µM
  relative viability: 0.322
NCI-H520; first compound 0.001 µM
  relative viability: 0.612
NCI-H520; first compound 0.003162 µM
  relative viability: 0.747
NCI-H520; first compound 0.01 µM
  relative viability: 0.738
NCI-H520; first compound 0.03162 µM
  relative viability: 0.392
NCI-H520; first compound 0.1 µM
  relative viability: 0.39
NCI-H596; first compound 0.001 µM
  relative viability: 0.67
NCI-H596; first compound 0.003162 µM
  relative viability: 0.883
NCI-H596; first compound 0.01 µM
  relative viability: 0.905
NCI-H596; first compound 0.03162 µM
  relative viability: 0.668
NCI-H596; first compound 0.1 µM
  relative viability: 0.712
NCI-H1734; first compound 0.001 µM
  relative viability: 0.57
NCI-H1734; first compound 0.003162 µM
  relative viability: 0.664
NCI-H1734; first compound 0.01 µM
  relative viability: 0.547
NCI-H1734; first compound 0.03162 µM
  relative viability: 0.345
NCI-H1734; first compound 0.1 µM
  relative viability: 0.349
NCI-H460; first compound 0.003162 µM
  relative viability: 0.127
NCI-H460; first compound 0.01 µM
  relative viability: 0.0752
NCI-H460; first compound 0.03162 µM
  relative viability: 0.108
NCI-H460; first compound 0.1 µM
  relative viability: 0.0424
SW 900; first compound 0.003162 µM
  relative viability: 0.973
SW 900; first compound 0.03162 µM
  relative viability: 0.76
SW 900; first compound 0.1 µM
  relative viability: 0.613
A-427; first compound 0.001 µM
  relative viability: 0.812
A-427; first compound 0.003162 µM
  relative viability: 0.567
A-427; first compound 0.01 µM
  relative viability: 0.73
A-427; first compound 0.03162 µM
  relative viability: 0.522
A-427; first compound 0.1 µM
  relative viability: 0.556
NCI-H838; first compound 0.001 µM
  relative viability: 0.462
NCI-H838; first compound 0.003162 µM
  relative viability: 0.617
NCI-H838; first compound 0.01 µM
  relative viability: 0.567
NCI-H838; first compound 0.03162 µM
  relative viability: 0.339
NCI-H838; first compound 0.1 µM
  relative viability: 0.494
NCI-H727; first compound 0.001 µM
  relative viability: 0.405
NCI-H727; first compound 0.003162 µM
  relative viability: 0.388
NCI-H727; first compound 0.01 µM
  relative viability: 0.355
NCI-H727; first compound 0.03162 µM
  relative viability: 0.368
NCI-H727; first compound 0.1 µM
  relative viability: 0.345
